Measured values reported in the supplement of paper PMC10307832.

Tests used:
Assay in all cases: relative viability (nuclei count vs DMSO), 5 days (fraction); higher = more cells survive
RU-SKI 43 + Navitoclax = compound: CC[C@@H](C)CNCC(=O)N1CCC2=C([C@@H]1COC3=CC=CC(=C3)C)C=CS2 [RU-SKI 43] + CC1(C)CCC(c2ccc(Cl)cc2)=C(CN2CCN(c3ccc(C(=O)NS(=O)(=O)c4ccc(N[C@H](CCN5CCOCC5)CSc5ccccc5)c(S(=O)(=O)C(F)(F)F)c4)cc3)CC2)C1 [Navitoclax] (partner 0.5 µM)
How it was run: (§1)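 Each reported value is a median over duplicate plates. It expresses relative viability: treated-well nuclei count divided by vehicle-well nuclei count. Lung cancer cell lines in 1536-well plates were dosed by pin tool a day after seeding, alone with one drug or with a fixed anchor-drug dose plus five library-drug doses (not always all listed) in √10 steps, and nuclei were counted after 5 days.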

RU-SKI 43 + Lapatinib = compound: CC[C@@H](C)CNCC(=O)N1CCC2=C([C@@H]1COC3=CC=CC(=C3)C)C=CS2 [RU-SKI 43] + CS(=O)(=O)CCNCc1ccc(-c2ccc3ncnc(Nc4ccc(OCc5cccc(F)c5)c(Cl)c4)c3c2)o1 [Lapatinib] (partner 2 µM)
How it was run: as §1

Irinotecan + Vorinostat = compound: CCc1c2c(nc3ccc(OC(=O)N4CCC(N5CCCCC5)CC4)cc13)-c1cc3c(c(=O)n1C2)COC(=O)[C@]3(O)CC [Irinotecan] + O=C(CCCCCCC(=O)Nc1ccccc1)NO [Vorinostat] (partner 1 µM)
How it was run: as §1

MK-8033 + Dasatinib = compound: Cn1cc(-c2cnc3ccc4ccc(CS(=O)(=O)NCc5ccccn5)cc4c(=O)c3c2)cn1 [MK-8033] + Cc1nc(Nc2ncc(C(=O)Nc3c(C)cccc3Cl)s2)cc(N2CCN(CCO)CC2)n1 [Dasatinib] (partner 0.075 µM)
How it was run: as §1

Row | Cell Line | relative viability (RU-SKI 43 + Navitoclax; first compound 0.1 µM) | relative viability (RU-SKI 43 + Navitoclax; first compound 0.3162 µM) | relative viability (RU-SKI 43 + Navitoclax; first compound 1 µM) | relative viability (RU-SKI 43 + Navitoclax; first compound 3.162 µM) | relative viability (RU-SKI 43 + Navitoclax; first compound 10 µM) | relative viability (RU-SKI 43 + Lapatinib; first compound 0.1 µM) | relative viability (RU-SKI 43 + Lapatinib; first compound 0.3162 µM) | relative viability (RU-SKI 43 + Lapatinib; first compound 1 µM) | relative viability (RU-SKI 43 + Lapatinib; first compound 3.162 µM) | relative viability (RU-SKI 43 + Lapatinib; first compound 10 µM) | relative viability (Irinotecan + Vorinostat; first compound 0.6325 µM) | relative viability (Irinotecan + Vorinostat; first compound 2 µM) | relative viability (Irinotecan + Vorinostat; first compound 6.325 µM) | relative viability (Irinotecan + Vorinostat; first compound 20 µM) | relative viability (MK-8033 + Dasatinib; first compound 0.02 µM) | relative viability (MK-8033 + Dasatinib; first compound 0.06325 µM) | relative viability (MK-8033 + Dasatinib; first compound 0.2 µM) | relative viability (MK-8033 + Dasatinib; first compound 0.6325 µM) | relative viability (MK-8033 + Dasatinib; first compound 2 µM)
1 | HCC-366 | 1.04 | 1.5 | 1.06 | 1.18 | 1.05 | 1.03 | 1.33 | 1.21 | 1.15 | 1.05 | 0.145 | 0.137 | 0.0609 | 0.069 | 0.617 | 0.638 | 0.564 | 0.634 | 0.651
2 | HCC-827 | 0.998 | 0.954 | 1.03 | 1.08 | 0.973 | 0.189 | 0.197 | 0.211 | 0.213 | 0.162 | 0.721 | 0.766 | 0.281 | 0.236 | 0.334 | 0.114 | 0.342 | 0.283 | 0.304
3 | HOP-62 | 1.22 | 1.26 | 1.21 | 1.14 | 1.06 | 0.973 | 1.28 | 0.883 | 1.03 | 0.877 | 0.234 | 0.311 | 0.167 | 0.188 | 0.536 | 0.535 | 0.581 | 0.66 | 0.599
4 | IA-LM | 0.752 | 0.751 | 0.856 | 0.738 | 0.824 | 0.717 | 0.956 | 1.02 | 0.79 | 0.731 |  | 0.619 | 0.251 | 0.0877 |  |  |  |  | 
5 | LC-2-ad | 0.388 | 0.487 | 0.63 | 0.422 | 0.329 | 1.05 | 0.969 | 1 | 0.976 | 0.93 | 0.312 | 0.373 | 0.283 | 0.181 | 0.547 | 0.437 |  | 0.67 | 0.61
6 | LCLC-97TM1 | 0.197 |  | 0.336 | 0.399 | 0.396 | 1.08 |  | 1.02 | 1.04 | 0.781 | 0.104 | 0.248 | 0.114 | 0.129 | 0.887 | 0.814 | 0.803 | 0.84 | 0.939
7 | LCLC-103H |  |  |  |  |  |  |  |  |  |  | 0.449 | 0.554 | 0.623 | 0.563 | 0.516 | 0.518 | 0.406 | 0.434 | 0.537
8 | LK-2 | 0.962 | 0.883 | 0.93 | 1.07 | 0.914 | 1.38 | 1.09 | 1.19 | 1.03 | 1.03 | 0.363 | 0.264 | 0.256 | 0.242 | 0.269 |  | 0.251 | 0.376 | 0.304
9 | LOU-NH91 | 0.679 | 0.746 | 0.741 | 0.714 | 0.683 | 0.796 | 0.685 | 0.815 | 0.749 | 0.754 | 0.837 | 0.875 | 0.315 | 0.147 | 0.534 | 0.388 | 0.537 | 0.57 | 0.544
10 | LU99A | 0.779 | 0.793 | 0.87 | 0.885 | 0.835 | 0.839 | 1.14 | 0.968 | 0.956 | 0.925 | 0.305 | 0.169 | 0.124 | 0.127 | 0.61 | 0.442 | 0.626 | 0.542 | 0.445
11 | NCI-H358 |  |  |  |  |  | 0.483 | 0.545 | 0.495 | 0.53 | 0.448 | 0.455 | 0.246 | 0.167 | 0.135 | 0.15 | 0.149 | 0.198 | 0.163 | 0.175
12 | NCI-H441 | 0.677 | 0.498 | 0.616 | 0.611 | 0.542 |  |  |  |  |  | 0.443 | 0.305 | 0.233 | 0.197 | 0.511 | 0.603 | 0.494 | 0.835 | 0.405
13 | NCI-H522 |  |  |  |  |  |  |  |  |  |  | 0.734 | 0.727 | 0.59 | 0.65 | 0.776 | 0.696 | 0.815 | 1.07 | 0.818
14 | NCI-H650 |  |  |  |  |  | 0.969 | 0.837 | 1.25 |  | 0.914 | 0.329 | 0.303 | 0.134 | 0.203 | 0.491 | 0.446 | 0.471 | 0.386 | 0.489
15 | NCI-H661 |  |  |  |  |  | 0.465 | 0.525 | 0.511 | 0.434 | 0.421 | 0.688 | 0.49 | 0.344 | 0.252 | 0.886 | 0.818 | 0.783 | 0.766 | 0.858
16 | NCI-H1299 | 1.04 | 1.09 | 1.07 | 1.01 | 1.03 | 0.965 | 1.03 | 1.05 | 0.941 | 0.95 |  |  |  |  |  |  |  |  | 
17 | NCI-H1563 |  |  |  |  |  | 0.871 | 0.874 | 0.879 | 0.913 | 0.765 |  |  |  |  | 0.468 | 0.45 | 0.473 | 0.362 | 0.46
18 | NCI-H1623 |  |  |  |  |  |  |  |  |  |  |  |  |  |  | 0.608 | 0.504 | 0.642 | 0.516 | 0.57
19 | NCI-H1648 |  |  |  |  |  |  |  |  |  |  | 0.379 | 0.423 | 0.355 | 0.279 |  |  |  |  | 
20 | NCI-H1703 | 1.2 | 1.08 | 0.987 | 1.16 | 0.535 |  | 1.86 | 1.11 | 1.16 | 0.637 |  |  |  |  |  |  |  |  | 
21 | NCI-H1792 | 0.65 | 0.908 | 0.968 | 0.612 | 0.685 | 0.937 | 1.14 | 1.42 | 0.88 | 0.973 |  |  |  |  | 0.768 | 0.834 | 0.752 | 0.57 | 0.569
22 | NCI-H2342 |  |  |  |  |  |  |  |  |  |  | 0.955 | 0.911 | 0.836 | 0.356 | 0.329 | 0.277 | 0.35 | 0.33 | 0.352
23 | SW 900 |  |  |  |  |  |  |  |  |  |  |  | 0.564 | 0.333 | 0.373 | 0.378 | 0.394 | 0.476 | 0.907 | 0.424
